Measurements published in publication PMC8327158, “PEGylated AdipoRon derivatives improve glucose and lipid metabolism under insulinopenic and high-fat diet conditions” (Journal of Lipid Research, 2021).

Tested on: HFD-fed wild-type mice
Experiment: Sphingolipid levels in tissues and serum of HFD-fed mice by mass spectrometry
Assay type: in vivo, mouse
Conditions: average ± SD
Experimental: Six-week-old wild-type male mice were fed HFD for 4 weeks or 7 months In total, 5 mg/Kg of PBS, Adiporon, AdipoRonPEG5, AdipoRonPEG6HTL were injected twice a day for 5 days. After 5 days of treatment, systemic test is performed, and serum (Before and after treatment), subcutaneous, epididymal, liver, heart samples were harvested for qPCR and sphingolipid analysis.
Flash-frozen tissue samples (~40 mg) in a borosilicate glass tube were quenched with 2.0 ml of organic extraction solvent (isopropanol: ethyl acetate, 15:85; v:v) and homogenized with a mechanical tissue disruptor. Immediately afterward, 20 μl of organic internal standard solution was added (Ceramide/Sphingoid Internal Standard Mixture II diluted 1:10 in ethanol). The mixture was vortexed for 20 s and sonicated in ultrasonic bath for 40 min at 40°C. The organic extract was allowed to reach room temperature, and 1.5 ml of HPLC water was added and a two-phase liquid-liquid extraction was performed. The upper phase was transferred to a new clean tube, and the lower aqueous phase containing the protein pellet was re-extracted with additional 2.0 ml of organic extraction solvent. The organic phases were combined and dried under nitrogen stream at 40°C. Dried extracts were stored at –80°C until analysis. For analysis of ceramides and sphingoid base species, the dried residues were reconstituted in 200 μl of methanol. Sphingomyelins required a sample dilution of 1:50 in methanol prior to analysis. Serum sphingolipids were extracted using a similar methodology requiring 25 μl of serum.
Liver, subcutaneous adipose tissue, pancreas, pancreatic islets were initially homogenized in 500 μl of cold PBS using an ultrasonic probe disruptor and keeping the sample on ice during sonication. In total, 50 μl of aqueous homogenate was aliquoted for protein determination. In total, 400 μl of the lysate was immediately quenched in 2.0 ml of organic extraction solvent.
In total, 5 μl of reconstituted samples was injected into an LC/MS/MS system for the analysis of ceramides and sphingoid bases, and 1 μl injection was required for the analysis of sphingomyelins. The system consisted of a Shimadzu LCMS-8050 triple-quadrupole mass spectrometer with the dual ion source operating in electrospray positive ionization mode. The mass spectrometer is coupled to a Shimadzu Nexera X2 UHPLC system equipped with three solvent delivery modules LC-30AD, three degassing units DGU-20A5R, an autosampler SIL-30ACMP, and a column oven CTO-20AC operating at 40°C (Shimadzu Scientific Instruments, Columbia, MD). Six sphingoid bases (d18:1 sphingosine, d18:1 sphingosine-1-phosphate, d18:1 deoxysphingosine, d18:0 sphinganine, d18:0 sphinganine-1-phosphate, d18:0 deoxysphinganine) and […] ceramide species and their metabolites (C16:0, C16:0 dihydroceramide, C16:0 glucosylceramide, C16:0 lactosylceramide, C16:0 sphingomyelin, C18:0, C18:0 dihydroceramide, C18:0 glucosylceramide, C18:0 sphingomyelin, C18:1, C20:0, C22:0, C22:0 glucosylceramide, C24:0, C24:0 dihydroceramide, C24:0 lactosylceramide, C24:0 sphingomyelin, C24:1, C24:1 dihydroceramide, C24:1 glucosylceramide, C24:1 sphingomyelin). Quantitative analysis of sphingolipids was achieved using selective reaction monitoring scan mode. Lipid separation was achieved by reverse phase LC on a 2.1 (i.d.) × 150 mm Ascentis Express C8, 2.7 micron (Supelco, Bellefonte, PA) column under gradient elution, using three different mobile phases: eluent A consisting of methanol/water/formic acid, 600/400/0.8, v/v/v with 5 mM ammonium formate, eluent B consisting of methanol/formic acid, 1,000/0.8, v/v with 5 mM ammonium formate, and eluent C consisting of CH3OH/CH2Cl2 350/650. The concentration of each metabolite was determined according to calibration curves using the peak-area ratio of analyte versus corresponding internal standard. Calibration curves were generated using serial dilutions of each target analyte.

[1] = scWAT, 5 mg/kg twice a day 5 days
[2] = serum at day 0 (before treatment)
[3] = serum at day 5, 5 mg/kg twice a day 5 days

## O=C(COc1ccc(C(=O)c2ccccc2)cc1)NC1CCN(Cc2ccc(OCCOCCOCCOCCOCCO)cc2)CC1 [AdipoRonPEG5]
[1]
  Hexosyl 16:0: 1715352.2 ± 544724.48 pg/mg
  Hexosyl 18:0: 988756.1 ± 523374.82 pg/mg
  Hexosyl 20:0: 624871.6 ± 310850.97 pg/mg
  Hexosyl 22:0: 5932684.2 ± 2348171.67 pg/mg
  Hexosyl 24:0: 25627611.9 ± 14360009.57 pg/mg
  Hexosyl 24:1: 13838465.2 ± 7503242.47 pg/mg
  Lactosyl 16:0: 44866.5 ± 53044.09 pg/mg
  Lactosyl 18:0: 0.0 ± 0.0 pg/mg
  Lactosyl 22:0: 41846.1 ± 19236.41 pg/mg
  Lactosyl 24:1: 71016.8 ± 18649.91 pg/mg
  Lactosyl C24:0: 41489.9 ± 21166.47 pg/mg
  Sphingaine1P: 40997.6 ± 18111.26 pg/mg
  Sphinganine: 35831.5 ± 25048.56 pg/mg
  Sphingosine: 65862.8 ± 45362.44 pg/mg
  Sphingosine1P: 45575.1 ± 20925.35 pg/mg
  dCer 16:0: 12585.7 ± 3750.43 pg/mg
  dCer 18:0: 16110.9 ± 4383.33 pg/mg
  dCer 20:0: 82646.0 ± 51960.31 pg/mg
  dCer 22:0: 65558.1 ± 8753.52 pg/mg
  dCer 24:0: 87756.9 ± 10704.97 pg/mg
  dCer 24:1: 103545.6 ± 21754.88 pg/mg
[2]
  Cer 14:0: 9547.7 ± 2338.7 pg/mg
  Cer 16:0: 29166.2 ± 4917.61 pg/mg
  Cer 18:0: 8552.2 ± 1447.69 pg/mg
  Cer 18:1: 0 pg/mg
  Cer 20:0: 161041.9 ± 19909.93 pg/mg
  Cer 22:0: 2248954.3 ± 477468.89 pg/mg
  Cer 24:0: 1497571.4 ± 240898.06 pg/mg
  Cer 24:1: 1109542.1 ± 131449.16 pg/mg
  Cer 26:0: 11416.3 ± 5402.24 pg/mg
  Cer 26:1: 0 pg/mg
  DeoxySphinganie: 0.0 ± 0.0 pg/mg
  Deoxysphingosine: 0.0 ± 0.0 pg/mg
  Hexosyl 14:0: 2960.2 ± 1473.95 pg/mg
  Hexosyl 16:0: 3186431.1 ± 124319.92 pg/mg
  Hexosyl 18:0: 50804.8 ± 12885.62 pg/mg
  Hexosyl 20:0: 212177.0 ± 30736.45 pg/mg
  Hexosyl 22:0: 12426084.7 ± 1134587.25 pg/mg
  Hexosyl 24:0: 1547284.6 ± 152581.98 pg/mg
  Hexosyl 24:1: 4176146.7 ± 370105.27 pg/mg
  Lactosyl 16:0: 97139.2 ± 3984.55 pg/mg
  Lactosyl 18:0: 0.0 ± 0.0 pg/mg
  Lactosyl 22:0: 67539.8 ± 8954.59 pg/mg
  Lactosyl 24:1: 91085.1 ± 17618.54 pg/mg
  Lactosyl C24:0: 106966.9 ± 12842.2 pg/mg
  Sphingaine1P: 236098.7 ± 23069.11 pg/mg
  Sphinganine: 40000.3 ± 8021.4 pg/mg
  Sphingosine: 34674.5 ± 9280.02 pg/mg
  Sphingosine1P: 626634.8 ± 40618.85 pg/mg
  dCer 16:0: 19797.0 ± 3523.66 pg/mg
  dCer 18:0: 11474.0 ± 1631.86 pg/mg
  dCer 20:0: 4088.3 ± 831.07 pg/mg
  dCer 22:0: 358570.9 ± 58282.32 pg/mg
  dCer 24:0: 224332.4 ± 35925.97 pg/mg
  dCer 24:1: 127711.1 ± 26772.71 pg/mg
[3]
  Cer 14:0: 9929.6 ± 3137.7 pg/mg
  Cer 16:0: 15778.4 ± 1918.13 pg/mg
  Cer 18:0: 13708.7 ± 1433.97 pg/mg
  Cer 18:1: 0 pg/mg
  Cer 20:0: 132529.6 ± 32152.61 pg/mg
  Cer 22:0: 1388023.2 ± 196403.0 pg/mg
  Cer 24:0: 1824217.1 ± 192203.29 pg/mg
  Cer 24:1: 1024425.3 ± 215659.12 pg/mg
  Cer 26:0: 16852.6 ± 6836.06 pg/mg
  Cer 26:1: 0 pg/mg
  DeoxySphinganie: 0.0 ± 0.0 pg/mg
  Deoxysphingosine: 0.0 ± 0.0 pg/mg
  Hexosyl 14:0: 2152.8 ± 1534.14 pg/mg
  Hexosyl 16:0: 4458327.8 ± 279958.81 pg/mg
  Hexosyl 18:0: 102580.4 ± 20477.28 pg/mg
  Hexosyl 20:0: 312105.6 ± 82139.38 pg/mg
  Hexosyl 22:0: 7780658.1 ± 1388198.99 pg/mg
  Hexosyl 24:0: 1624021.9 ± 177684.63 pg/mg
  Hexosyl 24:1: 3454314.7 ± 273336.65 pg/mg
  Lactosyl 16:0: 90624.9 ± 13005.26 pg/mg
  Lactosyl 18:0: 0.0 ± 0.0 pg/mg
  Lactosyl 22:0: 65007.0 ± 14500.42 pg/mg
  Lactosyl 24:1: 157880.8 ± 14580.32 pg/mg
  Lactosyl C24:0: 128620.1 ± 18235.69 pg/mg
  Sphingaine1P: 512041.7 ± 138152.22 pg/mg
  Sphinganine: 15276.5 ± 1962.03 pg/mg
  Sphingosine: 21363.8 ± 828.59 pg/mg
  Sphingosine1P: 1121550.6 ± 208889.89 pg/mg
  dCer 16:0: 3599.4 ± 848.4 pg/mg
  dCer 18:0: 4287.0 ± 935.1 pg/mg
  dCer 20:0: 2230.0 ± 831.07 pg/mg
  dCer 22:0: 88406.3 ± 22461.25 pg/mg
  dCer 24:0: 67386.7 ± 20818.51 pg/mg
  dCer 24:1: 33950.3 ± 10616.3 pg/mg
